Test results from patent US20100204265A1 (priority 2009, published 2010).

System: ET (Huh-lucubineo-ET) cell line harboring I389luc-ubi-neo/NS3-3′/ET HCV replicon
Assay: Replicon assay (HCV replicon, luciferase readout)
Format: cell-based
Settings: Hepatitis C virus
Summary of the method: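 Compounds at 10-point 2-fold dilutions (overall 0.1 nM to […], 0.5% DMSO) were applied to ET cells carrying a luciferase-neo HCV replicon, seeded a day earlier. After 48-72 hours, luciferase-based % inhibition was fitted with a Hill equation for EC50, and parallel WST-1 readings gave TC50.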

SMILES | EC50 [µM]
N#CC1(c2ncccc2F)CCN(C(=O)c2nc3c(C(F)(F)F)cc(-c4ccoc4)cn3c2Cl)CC1 [Compound 220, 1′-(3-Chloro-6-furan-3-yl-8-trifluoromethyl-imidazo[1,2-a]pyridine-2-carbonyl)-3-fluoro-2′,3′,5′,6′-tetrahydro-1′H-[2,4′]bipyridinyl-4′-carbonitrile] | 0.777
N#CC1(c2cccs2)CCN(C(=O)c2nc3c(C(F)(F)F)cc(-c4ccoc4)cn3c2Cl)CC1 [Compound 221, 1-(3-Chloro-6-furan-3-yl-8-trifluoromethyl-imidazo[1,2-a]pyridine-2-carbonyl)-4-thiophen-2-yl-piperidine-4-carbonitrile] | 0.0455
O=C(c1nc2c(C(F)(F)F)cc(-c3ccoc3)cn2c1Cl)N1CCC(O)(c2ncccc2F)CC1 [Compound 222, (3-Chloro-6-furan-3-yl-8-trifluoromethyl-imidazo[1,2-a]pyridin-2-yl)-(3-fluoro-4′-hydroxy-3′,4′,5′,6′-tetrahydro-2′H-[2,4′]bipyridinyl-1′-yl)-methanone] | 0.624
O=C(c1nc2c(C(F)(F)F)cc(-c3ccoc3)cn2c1Cl)N1CCC(F)(c2ncccc2F)CC1 [Compound 223, (3-Chloro-6-furan-3-yl-8-trifluoromethyl-imidazo[1,2-a]pyridin-2-yl)-(3,4′-difluoro-3′,4′,5′,6′-tetrahydro-2′H-[2,4′]bipyridinyl-1′-yl)-methanone] | 0.657
O=C(c1nc2c(C(F)(F)F)cc(-c3ccoc3)cn2c1Cl)N1CCC(O)(c2nccs2)CC1 [Compound 224, (3-Chloro-6-furan-3-yl-8-trifluoromethyl-imidazo[1,2-a]pyridin-2-yl)-(4-hydroxy-4-thiazol-2-yl-piperidin-1-yl)-methanone] | 3.5
CC(C)CCC1CCN(C(=O)c2nc3c(C(F)(F)F)cc(-c4ccoc4)cn3c2Cl)CC1 [Compound 225, (3-Chloro-6-furan-3-yl-8-trifluoromethyl-imidazo[1,2-a]pyridin-2-yl)-[4-(3-methyl-butyl)-piperidin-1-yl]-methanone] | 2.29
O=C(NCc1cn2cc(-c3ccoc3)cc(C(F)(F)F)c2n1)C1CC1 [Compound 226, Cyclopropanecarboxylic acid (6-furan-3-yl-8-trifluoromethyl-imidazo[1,2-a]pyridin-2-ylmethyl)-amide] | > 50
O=S(=O)(NCc1cn2cc(-c3ccoc3)cc(C(F)(F)F)c2n1)C1CC1 [Compound 227, Cyclopropanesulfonic acid (6-furan-3-yl-8-trifluoromethyl-imidazo[1,2-a]pyridin-2-ylmethyl)-amide] | > 50
FC(F)(F)c1cc(-c2ccoc2)cn2cc(Cn3cnc(-c4ccccc4)c3)nc12 [Compound 228, 6-Furan-3-yl-2-(4-phenyl-imidazol-1-ylmethyl)-8-trifluoromethyl-imidazo[1,2-a]pyridine] | > 50
FC(F)(F)c1cc(-c2ccoc2)cn2cc(Cc3nc(-c4ccccc4)no3)nc12 [Compound 229, 6-Furan-3-yl-2-(3-phenyl-[1,2,4,]oxadiazol-5-ylmethyl)-8-trifluoromethyl-imidazo[1,2-a]pyridine] | > 50
FC(F)(F)c1cc(-c2ccoc2)cn2cc(Cc3nc(Cc4ccccc4)no3)nc12 [Compound 230, 2-(3-Benzyl-[1,2,4]oxadiazol-5-ylmethyl)-6-furan-3-yl-8-trifluoromethyl-imidazo[1,2-a]pyridine] | > 50
FC(F)(F)c1cc(-c2ccoc2)cn2cc(Cc3nc(COc4ccccc4)no3)nc12 [Compound 231, 6-Furan-3-yl-2-(3-phenoxymethyl-[1,2,4]oxadiazol-5-ylmethyl)-8-trifluoromethyl-imidazo[1,2-a]pyridine] | > 50
CC(C)CS(=O)(=O)NCc1cn2cc(-c3ccoc3)cc(C(F)(F)F)c2n1 [Compound 232, 2-Methyl-propane-1-sulfonic acid (6-furan-3-yl-8-trifluoromethyl-imidazo[1,2-a]pyridin-2-ylmethyl)-amide] | > 50
CCOCCOC1CCN(C(=O)c2nc3c(C(F)(F)F)cc(-c4cn[nH]c4)cn3c2Cl)C1 (stereo not shown) [Compound 233, [3-Chloro-6-(1H-pyrazol-4-yl)-8-trifluoromethyl-imidazo[1,2-a]pyridin-2-yl]-[3-(2-ethoxy-ethoxy)-pyrrohdin-1-yl]-methanone] | > 50
O=C1c2ccccc2C(=O)N1Cc1cn2cc(-c3ccoc3)cc(C(F)(F)F)c2n1 [Compound 234, 2-(6-Furan-3-yl-8-trifluoromethyl-imidazo[1,2-a]pyridin-2-ylmethyl)-isoindole-1,3-dione] | > 50
Clc1ccc(Cn2c(CN3CCCC3)nc3ccccc32)cc1 [Compound 235, 1-(4-Chloro-benzyl)-2-pyrrolidin-1-ylmethyl-1H-benzoimidazole] | 40.2
N#CCc1cn2cc(-c3ccoc3)cc(C(F)(F)F)c2n1 [Compound 236, (6-Furan-3-yl-8-trifluoromethyl-imidazo[1,2-a]pyridin-2-yl)-acetonitrile] | > 50
NC(=O)C1CCCN1C(=O)c1nc2c(C(F)(F)F)cc(-c3ccoc3)cn2c1Cl (stereo not shown) [Compound 237, 1-(3-Chloro-6-furan-3-yl-8-trifluoromethyl-imidazo[1,2-a]pyridine-2-carbonyl)-pyrrolidine-2-carboxylic acid amide] | > 50
CN(C)CC(=O)NCc1cn2cc(-c3ccoc3)cc(C(F)(F)F)c2n1 [Compound 239, 2-Dimethylamino-N-(6-furan-3-yl-8-trifluoromethyl-imidazo[1,2-a]pyridin-2-ylmethyl)-acetamide] | > 50
CC(=O)NCC(=O)NCc1cn2cc(-c3ccoc3)cc(C(F)(F)F)c2n1 [Compound 240, 2-Acetylamino-N-(6-furan-3-yl-8-trifluoromethyl-imidazo[1,2-a]pyridin-2-ylmethyl)-acetamide] | > 50
CC(C)CC(N)C(=O)NCc1cn2cc(-c3ccoc3)cc(C(F)(F)F)c2n1 (stereo not shown) [Compound 241, 2-Amino-4-methyl-pentanoic acid (6-furan-3-yl-8-trifluoromethyl-imidazo[1,2-a]pyridin-2-ylmethyl)-amide] | > 50
CC(C)(C)OC(=O)NCCc1cn2cc(-c3ccoc3)cc(C(F)(F)F)c2n1 [Compound 242, [2-(6-Furan-3-yl-8-trifluoromethyl-imidazo[1,2-a]pyridin-2-yl)-ethyl]-carbamic acid tert-butyl ester] | > 50
CC(=O)NC(CC(C)C)C(=O)NCc1cn2cc(-c3ccoc3)cc(C(F)(F)F)c2n1 (stereo not shown) [Compound 243, 2-Acetylamino-4-methyl-pentanoic acid (6-furan-3-yl-8-trifluoromethyl-imidazo[1,2-a]pyridin-2-ylmethyl)-amide] | > 50
CC(=O)NC(C)C(=O)NCc1cn2cc(-c3ccoc3)cc(C(F)(F)F)c2n1 (stereo not shown) [Compound 244, 2-Acetylamino-N-(6-furan-3-yl-8-trifluoromethyl-imidazo[1,2-a]pyridin-2-ylmethyl)-propionamide] | > 50
CC(=O)NC(Cc1c[nH]c2ccccc12)C(=O)NCc1cn2cc(-c3ccoc3)cc(C(F)(F)F)c2n1 (stereo not shown) [Compound 245, 2-Acetylamino-N-(6-furan-3-yl-8-trifluoromethyl-imidazo[1,2-a]pyridin-2-ylmethyl)-3-(1H-indol-3-yl)-propionamide] | > 50
